Results published in PubChem BioAssay (NCI).
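All cell lines were grown in 96-well plates and treated with compound for 48 hours. TGI denotes the concentration required for complete inhibition of growth.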

Tests used:
Experiment in all cases: NCI-60 cell line screen, 48 h
786-0 renal = system: 786-0 renal
A498 renal = system: A498 renal
A549 NSCLC = system: A549 NSCLC
ACHN renal = system: ACHN renal
CAKI-1 renal = system: CAKI-1 renal
CCRF-CEM leukemia = system: CCRF-CEM leukemia
COLO 205 colon = system: COLO 205 colon
DLD-1 colon = system: DLD-1 colon
DMS 114 small cell lung = system: DMS 114 small cell lung
EKVX NSCLC = system: EKVX NSCLC
HCC-2998 colon = system: HCC-2998 colon
HCT-116 colon = system: HCT-116 colon
HCT-15 colon = system: HCT-15 colon
HOP-18 NSCLC = system: HOP-18 NSCLC
HOP-62 NSCLC = system: HOP-62 NSCLC
HOP-92 NSCLC = system: HOP-92 NSCLC
HT29 colon = system: HT29 colon
IGROV1 ovarian = system: IGROV1 ovarian
K-562 leukemia = system: K-562 leukemia
KM12 colon = system: KM12 colon
LOX IMVI melanoma = system: LOX IMVI melanoma
LXFL 529 NSCLC = system: LXFL 529 NSCLC
M14 melanoma = system: M14 melanoma
M19-MEL melanoma = system: M19-MEL melanoma
MALME-3M melanoma = system: MALME-3M melanoma
MOLT-4 leukemia = system: MOLT-4 leukemia
NCI-H226 lung = system: NCI-H226 lung
NCI-H23 lung = system: NCI-H23 lung
NCI-H460 lung = system: NCI-H460 lung
NCI-H522 lung = system: NCI-H522 lung
OVCAR-3 ovarian = system: OVCAR-3 ovarian
OVCAR-4 ovarian = system: OVCAR-4 ovarian
OVCAR-5 ovarian = system: OVCAR-5 ovarian
OVCAR-8 ovarian = system: OVCAR-8 ovarian
RPMI-8226 leukemia = system: RPMI-8226 leukemia
RXF 393 renal = system: RXF 393 renal
SF-268 CNS = system: SF-268 CNS
SF-295 CNS = system: SF-295 CNS
SF-539 CNS = system: SF-539 CNS
SK-MEL-2 melanoma = system: SK-MEL-2 melanoma
SK-MEL-28 melanoma = system: SK-MEL-28 melanoma
SK-MEL-5 melanoma = system: SK-MEL-5 melanoma
SK-OV-3 ovarian = system: SK-OV-3 ovarian
SN12C renal = system: SN12C renal
SNB-19 CNS = system: SNB-19 CNS
SNB-78 CNS = system: SNB-78 CNS
SR leukemia = system: SR leukemia
SW-620 colon = system: SW-620 colon
U251 CNS = system: U251 CNS
UACC-257 melanoma = system: UACC-257 melanoma
UACC-62 melanoma = system: UACC-62 melanoma
UO-31 renal = system: UO-31 renal
BT-549 breast = system: BT-549 breast
DMS 273 small cell lung = system: DMS 273 small cell lung
DU-145 prostate = system: DU-145 prostate
HL-60(TB) leukemia = system: HL-60(TB) leukemia
HS 578T breast = system: HS 578T breast
KM20L2 colon = system: KM20L2 colon
MCF7 breast = system: MCF7 breast
MDA-MB-435 = system: MDA-MB-435
SNB-75 CNS = system: SNB-75 CNS
T-47D breast = system: T-47D breast
TK-10 renal = system: TK-10 renal
XF 498 CNS = system: XF 498 CNS

Structure (SMILES): COc1cc(/C=N/N=C(\N)NO)cc(Cl)c1O
- TGI (786-0 renal): > 100 µM
- TGI (A498 renal): > 100 µM
- TGI (A549 NSCLC): > 100 µM
- TGI (ACHN renal): > 100 µM
- TGI (CAKI-1 renal): > 100 µM
- TGI (CCRF-CEM leukemia): > 100 µM
- TGI (COLO 205 colon): > 100 µM
- TGI (DLD-1 colon): > 100 µM
- TGI (DMS 114 small cell lung): > 100 µM
- TGI (EKVX NSCLC): > 100 µM
- TGI (HCC-2998 colon): > 100 µM
- TGI (HCT-116 colon): > 100 µM
- TGI (HCT-15 colon): > 100 µM
- TGI (HOP-18 NSCLC): 88.5 µM
- TGI (HOP-62 NSCLC): > 100 µM
- TGI (HOP-92 NSCLC): > 100 µM
- TGI (HT29 colon): > 100 µM
- TGI (IGROV1 ovarian): > 100 µM
- TGI (K-562 leukemia): > 100 µM
- TGI (KM12 colon): > 100 µM
- TGI (LOX IMVI melanoma): > 100 µM
- TGI (LXFL 529 NSCLC): > 100 µM
- TGI (M14 melanoma): > 100 µM
- TGI (M19-MEL melanoma): > 100 µM
- TGI (MALME-3M melanoma): > 100 µM
- TGI (MOLT-4 leukemia): > 100 µM
- TGI (NCI-H226 lung): 81.6 µM
- TGI (NCI-H23 lung): > 100 µM
- TGI (NCI-H460 lung): > 100 µM
- TGI (NCI-H522 lung): > 100 µM
- TGI (OVCAR-3 ovarian): > 100 µM
- TGI (OVCAR-4 ovarian): > 100 µM
- TGI (OVCAR-5 ovarian): > 100 µM
- TGI (OVCAR-8 ovarian): > 100 µM
- TGI (RPMI-8226 leukemia): > 100 µM
- TGI (RXF 393 renal): 61.7 µM
- TGI (SF-268 CNS): > 100 µM
- TGI (SF-295 CNS): > 100 µM
- TGI (SF-539 CNS): > 100 µM
- TGI (SK-MEL-2 melanoma): > 100 µM
- TGI (SK-MEL-28 melanoma): > 100 µM
- TGI (SK-MEL-5 melanoma): > 100 µM
- TGI (SK-OV-3 ovarian): > 100 µM
- TGI (SN12C renal): > 100 µM
- TGI (SNB-19 CNS): > 100 µM
- TGI (SNB-78 CNS): > 100 µM
- TGI (SR leukemia): > 100 µM
- TGI (SW-620 colon): > 100 µM
- TGI (U251 CNS): > 100 µM
- TGI (UACC-257 melanoma): > 100 µM
- TGI (UACC-62 melanoma): > 100 µM
- TGI (UO-31 renal): > 100 µM

Structure (SMILES): O=C(Nc1cccc(C(F)(F)F)c1)C(=O)C(C(=O)c1ccc2ccccc2c1)C1OC(=O)c2ccccc21 (stereo not given)
- TGI (786-0 renal): 15.9 µM
- TGI (A498 renal): 20.3 µM
- TGI (A549 NSCLC): 78.3 µM
- TGI (ACHN renal): 73.5 µM
- TGI (BT-549 breast): 93.9 µM
- TGI (CAKI-1 renal): > 100 µM
- TGI (CCRF-CEM leukemia): 29.1 µM
- TGI (COLO 205 colon): 38.9 µM
- TGI (DLD-1 colon): 23.4 µM
- TGI (DMS 114 small cell lung): 17.1 µM
- TGI (DMS 273 small cell lung): > 100 µM
- TGI (DU-145 prostate): 81.2 µM
- TGI (EKVX NSCLC): 27.5 µM
- TGI (HCC-2998 colon): 23.5 µM
- TGI (HCT-116 colon): 21.2 µM
- TGI (HCT-15 colon): 32.2 µM
- TGI (HL-60(TB) leukemia): 40.9 µM
- TGI (HOP-62 NSCLC): 36.8 µM
- TGI (HOP-92 NSCLC): > 100 µM
- TGI (HS 578T breast): 45.2 µM
- TGI (HT29 colon): 38.2 µM
- TGI (IGROV1 ovarian): 71.6 µM
- TGI (K-562 leukemia): > 73.7 µM
- TGI (KM12 colon): 29 µM
- TGI (KM20L2 colon): 33.5 µM
- TGI (LOX IMVI melanoma): 20.7 µM
- TGI (LXFL 529 NSCLC): 20.8 µM
- TGI (M14 melanoma): 34.4 µM
- TGI (M19-MEL melanoma): 31.1 µM
- TGI (MALME-3M melanoma): 17 µM
- TGI (MCF7 breast): 45.8 µM
- TGI (MDA-MB-435): > 100 µM
- TGI (MOLT-4 leukemia): 11.1 µM
- TGI (NCI-H226 lung): 11.5 µM
- TGI (NCI-H23 lung): 17.7 µM
- TGI (NCI-H460 lung): 36.3 µM
- TGI (NCI-H522 lung): 25.6 µM
- TGI (OVCAR-3 ovarian): 55.6 µM
- TGI (OVCAR-4 ovarian): > 42.7 µM
- TGI (OVCAR-5 ovarian): 31.5 µM
- TGI (OVCAR-8 ovarian): 35.6 µM
- TGI (RPMI-8226 leukemia): 60.6 µM
- TGI (RXF 393 renal): 11.9 µM
- TGI (SF-268 CNS): 49.1 µM
- TGI (SF-295 CNS): 23.4 µM
- TGI (SF-539 CNS): 10.2 µM
- TGI (SK-MEL-2 melanoma): 15.8 µM
- TGI (SK-MEL-28 melanoma): 15.7 µM
- TGI (SK-MEL-5 melanoma): 24.4 µM
- TGI (SK-OV-3 ovarian): > 100 µM
- TGI (SN12C renal): 36.9 µM
- TGI (SNB-19 CNS): 25.8 µM
- TGI (SNB-75 CNS): 30.6 µM
- TGI (SNB-78 CNS): 26.6 µM
- TGI (SR leukemia): 16 µM
- TGI (SW-620 colon): 37 µM
- TGI (T-47D breast): 84.8 µM
- TGI (TK-10 renal): 48 µM
- TGI (U251 CNS): 17.4 µM
- TGI (UACC-257 melanoma): 15.9 µM
- TGI (UACC-62 melanoma): 19.1 µM
- TGI (UO-31 renal): 20.6 µM
- TGI (XF 498 CNS): 12.3 µM
